We go through one compound from paper PMC12323131, “CSRP2 promotes the glioblastoma mesenchymal phenotype via p130Cas-mediated NF-κB and MAPK pathways” (Journal of Experimental & Clinical Cancer Research : CR, 2025).

pKd: −log10 of the molar value.

The target in the assay is T1, CSRP2 recombinant protein (Homo sapiens, UniProt Q16527).
T1 construct: labelled with RED-NHS dye
T1 sequence (Q16527 1-193): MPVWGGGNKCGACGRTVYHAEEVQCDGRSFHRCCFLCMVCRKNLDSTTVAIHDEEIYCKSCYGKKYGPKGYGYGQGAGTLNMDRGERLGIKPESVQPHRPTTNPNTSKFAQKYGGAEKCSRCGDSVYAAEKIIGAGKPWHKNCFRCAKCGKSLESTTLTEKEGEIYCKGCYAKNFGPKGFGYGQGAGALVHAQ
The assay is described as follows: microscale thermophoresis. In kind it is binding. For orientation: In MST a laser heats a spot of the sample, and binding alters the fluorescence response.

As usually defined, the pKd is the Kd on a negative log10 scale, so that one unit is a factor of ten. `O=C1c2c(O)ccc(O)c2C(=O)c2c(NCCNCCO)ccc(NCCNCCO)c21` [Mitoxantrone]: the pKd is 6.43.
